According to patent publication US20180346731A1, “Formation of Stable Pyranoanthocyanins, and Uses Thereof as Sources of Natural Color” (Ohio State Innovation Foundation, priority 2017, published 2018):

Columns and labels:
Type in all cases: physicochemical
[1] = UV-Vis spectra of anthocyanin isolates treated with pyruvic acid, 31 days storage; conditions: for decrease in maximum absorbance: 500 μM, pyruvic acid ×100 M ratio, pH 2.5, 25° C., after 31 days
Protocol: (§1) Prior to dilution, the concentrations of the isolated pigment extracts were determined by the pH differential method for subsequent dilution to known concentrations. The isolates were then diluted to 500 μM (expressed as Cyanidin-3-glucoside equivalents) in pH 2.5 deionized water (previously adjusted with HCl) which contained 0.1% potassium sorbate (w/v) and 0.1% sodium benzoate (w/v) to function as preservative agents during storage. A pH of 2.5 was selected as a compromise of several variables: the flavylium form was predominant, the effect of pKh was minimized, and it is a relevant pH for wines. It has been reported that the pKh's of cy3 gal, cy3xylgal, and cy3xylglugal ranges from 3.01 to 3.26. Working at pH 2.5 largely avoided the effect of different equilibrium forms while also maintaining a pH that is similar to that of wines where these compounds are commonly formed. Control samples of each isolate were prepared and contained no pyruvic acid. For treatments containing pyruvic acid, a previously diluted pyruvic acid standard (pyruvic acid in the same pH 2.5 water containing preservatives) was added to obtain concentrations 100× the molar ratio of anthocyanins (50 mM of pyruvic acid). All treatments were brought to the same final volume by the addition of more pH 2.5 water. Samples were filtered through a 0.2 μm membrane into 1.5 mL glass HPLC vials. Vials were capped and stored in an incubator in the dark at 25° C. for a 31 day duration (Fisher Scientific, Waltham, Mass., U.S.). All treatments were prepared in triplicate.
Absorbance spectra of anthocyanin isolates subjected to pyruvic acid treatment was collected using a SpectraMax 190 microplate reader (Molecular Devices, Sunnyvale, Calif., U.S.). Sample aliquots (75 μL) were loaded in a 96-well plate (poly-D-lysine coated polystyrene). Samples were evaluated from 380 to 780 nm in 1 nm intervals. The blank consisted of the same acidified pH 2.5 water solution used to dilute pigment samples. Spectra were collected on day 0, 7, 14, and 31. Spectrophotometric data of the samples was used to correlate with pyranoanthocyanins formation.

[2] = Anthocyanin survival of control treatments at pH 2.5 (uHPLC AUC 500-520 nm); conditions: pH 2.5 acidified water, no pyruvic acid, 25° C., day 31
Protocol: FIG. 10: Pyranoanthocyanin yield for anthocyanins (500 μM) subjected to pyruvic acid treatment (×100 M ratio) and anthocyanin survival of control treatments at pH 2.5 acidified water at day 7, 14, and 31. Yield defined as (AUC500-520 nm of PACN at tn/AUC500-520 nm of ACN @t0)*100. Survival defined as (AUC500-520 nm of ACN at tn/AUC500-520 nm of ACN @ t0)*100. Values shown are means (n=3) and bars represent standard deviation.
A uHPLC system (Shimadzu Nexera-i LC-2040C, Maryland, U.S.) coupled with tandem MS (Shimadzu LCMS-8040, Maryland, U.S.) was used in evaluating initial anthocyanin purity and monitoring changes in anthocyanins with and without pyruvic acid treatment over time. A 0.4 mL/min flow rate was used on a Pinnacle DB (Restek Corporation, Bellefonte, Pa.) C18 Column (1.9 μm particle size, 50×2.1 mm length). The column oven was set at 40° C. The following gradient of solvent A (4.5% formic acid) and B (100% acetonitrile) was used: 0% B for the first minute, ramped to 15% B by 10 min. This method was effective for separation of the formed pyranoanthocyanin from anthocyanin for all isolates except cy3rut which coeluted with the formed pyranoanthocyanin. This was observed through MS-MS data. […]
Quantification of pigments was conducted on day 0, 3, 7, 14, and 31 using a standard curve of cyanidin-3-glucoside (Sigma Aldrich, St. Louis, Mo., U.S.) run under the same conditions used for isolates. Molar absorptivities of anthocyanins and carboxypyranoanthocyanidins have been reported as being relatively similar and were thought to provide a basis of confidence in using AUC500-520 nm as a quantitative measure of pyranoanthocyanin yield.
Prior to dilution, the concentrations of the isolated pigment extracts were determined by the pH differential method for subsequent dilution to known concentrations. The isolates were then diluted to 500 μM (expressed as Cyanidin-3-glucoside equivalents) in pH 2.5 deionized water (previously adjusted with HCl) which contained 0.1% potassium sorbate (w/v) and 0.1% sodium benzoate (w/v) to function as preservative agents during storage. […]

[3] = Colorimetry (CIEL*c*h*, ΔE2000) of anthocyanin isolates treated with pyruvic acid, 31 days storage; conditions: for ΔL* / Δc*: day 0 to day 31; for total color change (ΔE): day 0 vs day 31, Delta E2000; for increase in hue angle: over 31 days
Protocol: as §1
Colorimetric data of samples was calculated from spectra of samples collected from the plate reader with ColorBySpectra. Absorbance data was obtained and conversion to color values was achieved using the following settings: regular transmission, D65 illuminant, and 10° observer angle. Values reported are in the CIEL*c*h* scale. After storage for 31 days, the mathematical differences in color (ΔE) were calculated according to the CIE-L*a*b* Delta E2000 equation. Colorimetric data of the samples containing pyruvic acid was used to correlate with pyranoanthocyanins formation. Spectral absorbance data of the peaks of the anthocyanins and their respective pyranoanthocyanins were also collected from the PDA during uHPLC analyses and converted to colorimetric data using ColorBySpectra under the settings described above. The spectra was obtained from the time of elution of the target compound and then standardized to an absorbance of 1.0 at λvis-max.

decrease in maximum absorbance [1] [%]	total color change (ΔE) [3]	Compound	other results
–	9.2	OCC1O[C@@H](Oc2cc3c(O)cc(O)cc3[o+]c2-c2ccc(O)c(O)c2)C(O[C@@H]2OC(CO)[C@@H](O)C(O)[C@H]2O)C(O)[C@@H]1O (stereo partly drawn) [cy3soph, cyanidin-3-sophoroside]	–
–	7.8	OC[C@H]1O[C@@H](Oc2cc3c(O)cc(O)cc3[o+]c2-c2ccc(O)c(O)c2)[C@H](O[C@@H]2OC[C@@H](O)[C@H](O)[C@H]2O)[C@@H](O)[C@H]1O [cy3xylgal, cyanidin-3-(xylosyl)galactoside]	–
–	8.3	OC[C@H]1O[C@@H](OC[C@H]2O[C@@H](Oc3cc4c(O)cc(O)cc4[o+]c3-c3ccc(O)c(O)c3)[C@H](O[C@@H]3OC[C@@H](O)[C@H](O)[C@H]3O)[C@@H](O)[C@H]2O)[C@H](O)[C@@H](O)[C@@H]1O [cy3xylglugal, cyanidin-3-(xylosylglucosyl) galactoside]	–

Second part, the compound before the results:

Compound	decrease in maximum absorbance [1] [%]	total color change (ΔE) [3]	other results
Oc1cc(O)c2cc(O[C@@H]3OC[C@H](O)[C@H](O)[C@H]3O)c(-c3ccc(O)c(O)c3)[o+]c2c1 [cy3ara, cyanidin-3-arabinoside]	71	16.4	shift of λvis-max of solution ([1]; pyruvic acid treated, pH 2.5, by day 31): bathochromic shift; anthocyanin survival of control treatment [2]: 66%; ΔL* [3]: 10.2; Δc* [3]: −42.5
OC[C@H]1O[C@@H](Oc2cc3c(O)cc(O)cc3[o+]c2-c2ccc(O)c(O)c2)[C@H](O)[C@@H](O)[C@@H]1O [cy3glu, cyanidin-3-glucoside]	–	7.2	anthocyanin survival of control treatment [2]: 49%
OC[C@H]1O[C@@H](OC[C@H]2O[C@@H](Oc3cc4c(O)cc(O)cc4[o+]c3-c3ccc(O)c(O)c3)[C@H](O)[C@@H](O)[C@H]2O)[C@H](O)[C@@H](O)[C@@H]1O [cy3glugal, cyanidin-3-(glucosyl)galactoside]	26	3.6	ΔL* [3]: 1.8; increase in hue angle [3]: 0.5 °
C[C@@H]1O[C@@H](OC[C@H]2O[C@@H](Oc3cc4c(O)cc(O)cc4[o+]c3-c3ccc(O)c(O)c3)[C@H](O)[C@@H](O)[C@@H]2O)[C@H](O)[C@H](O)[C@H]1O [cy3rut, cyanidin-3-rutinoside]	30	4.9	Δc* [3]: −9.7; increase in hue angle [3]: 1.1 °
OC[C@H]1O[C@@H](Oc2cc(O)cc3[o+]c(-c4ccc(O)c(O)c4)c(O[C@@H]4O[C@H](CO)[C@@H](O)[C@H](O)[C@H]4O[C@@H]4O[C@H](CO)[C@@H](O)[C@H](O)[C@H]4O)cc23)[C@H](O)[C@@H](O)[C@@H]1O [cy3soph5glu, cyanidin-3-sophoroside-5-glucoside]	–	9.7	initial L* ([3]; pH 2.5, day 0): 87.5
